Consider two molecules from patent US9376665B2, “Method for producing intestinal cells” (National University Corporation Kumamoto University, priority 2010, dated 2016).

Entries after “also recorded” stand apart in the source; their conditions may differ.

Assay [1] has as its system human ES cells. Description: Test Example 4: effect of FGF2 concentration on human ES cells, proportion of Cdx2-positive cells by flow cytometry. The class given is cell-based. The protocol: Since there has been a previous report that a high concentration of FGF2 is important for differentiation of human ES cells into Cdx2-positive cells, it was examined whether or not the same results can be obtained. The final concentration of 250 ng/mL of FGF2 was used. In accordance with the method in Test Example 3, differentiation of human ES cells was carried out on gelatin-coated dishes until they differentiated into endoderm, and then (on the 7th day of cultivation), 0, 50, and 250 ng/mL of FGF2, respectively, were added thereto besides BIO (5 μM) and DAPT (10 μM), and the cells were further cultured until the 9th day or 20th day, and the proportion of Cdx2-positive cells was evaluated by flow cytometry. The flow cytometry (FACS) analysis was carried out using BD Cytofix/Cytoperm™ Kit (BD Biosciences) in accordance with a manual provided by the manufacturer.

The subject of assay [2] is human ES cells. Kind of assay: Test Example 3: addition of various activators in human ES cells, proportion of Cdx2-positive cells by flow cytometry. The conditions noted are these: 20th day of cultivation; FGF2 50 ng/mL besides BIO (5 ηM) and DAPT (10 μM). It counts as cell-based. The procedure: With respect to human ES cells, it was examined whether or not addition of FGF2, BMP4 and/or SAG improves an efficiency of differentiation into Cdx2-positive cells in a feeder-free system.
First, for the experiment of inducing the differentiation, human ES cells were plated on gelatin-coated dishes at 69,000 cells/cm^2. The ES cells were cultured for seven days in RPMI 1640 medium (Invitrogen) supplemented with NEAA, L-Gln, PS, β-ME, 10 μg/mL of Insulin (Sigma-Aldrich), 100 ng/mL of recombinant human activin A (R&D Systems, Minneapolis, Minn.), and B27 supplement (Invitrogen). Then, the culture medium was replaced with 10% KSR supplemented with 2,000 mg/mL of glucose, BIO ([…]), DAPT (10 μM) and activators and growth factors at the concentrations as described in Test Example 2. After that, cell culturing was further continued, and the cells were separated on the 9th day and the 20th day of cultivation in the same manner as Example 1, and then, the proportion of Cdx2-positive cells was evaluated by use of flow cytometry. The flow cytometry (FACS) analysis was carried out using BD Cytofix/Cytoperm™ Kit (BD Biosciences) in accordance with a manual provided by the manufacturer.

In a further assay the test system is mouse ES cells. Kind of assay: Test Example 2: addition of various activators, proportion of Cdx2-positive cells by flow cytometry, feeder-free. It counts as cell-based. The conditions noted are these: for Cdx2-positive cells: BIO (5 μM) and DAPT (10 μM) with or without FGF2 50 ng/mL. The procedure: Therefore, next, an experiment in which the FGF signaling, the BMP signaling and the Hh signaling were activated was carried out. In view of micro-array data showing that MEF cells express FGF2 and BMP4, 50 ng/mL of FGF2 (PEPROTECH) and 25 ng/mL of BMP4 (R&D Systems) were used to activate the FGF signaling and the BMP signaling. Furthermore, as to activation of the Hh signaling, 300 nM of SAG (MERCK) (smoothend agonist; smo) was used.
For the experiment of inducing the differentiation, the induction of differentiation was carried out in a feeder-free system as described below. First, mouse ES cells were plated on a gelatin-coated dish at 6,900 cells/cm^2. The ES cells were cultured for 7 days in DMEM medium (Dulbecco's Modified Eagle Medium) (Invitrogen, Glasgow, UK) containing 4,500 mg/L of glucose, supplemented with NEAA, L-Gln, PS, β-ME, 10 μg/mL of Insulin (Sigma-Aldrich), […] of Transferin (Sigma-Aldrich), 6.7 pg/mL of Selenium (Sigma-Aldrich), 0.25% AlbuMax (Invitrogen), and 10 ng/mL of recombinant human activin A (R&D Systems, Minneapolis, Minn.), and then, the culture medium was replaced with 10% KSR containing 2,000 mg/mL of glucose, BIO (5 μM) and DAPT (10 μM) and further supplemented with the activator or growth factor. After that, cell culturing was further continued, the cells were separated on the 10th day and the 15th day of cultivation as described in Example 1, and then, the proportion of Cdx2-positive cells was evaluated by use of flow cytometry. The flow cytometry (FACS) analysis was carried out using BD Cytofix/Cytoperm™ Kit (BD Biosciences) in accordance with a manual provided by the manufacturer.
(A flow cytometer gives signals particle by particle.)

Assay [3] concerns definitive endoderm cells. Description: Effects of FGFs on intestinal differentiation of definitive endoderm cells (RT-PCR, Cdx2 immunohistochemistry). It counts as cell-based, mouse. The procedure: The ES cells were culture on M15 cells added with 20 ng/mL of activin and 50 ng/mL of bFGF in DMEM medium containing 10% fetal bovine sera and […] of glucose for 5 days, and were analyzed using flow cytometry for definitive endoderm. For intestinal differentiation, the ES cells were further cultured on M15 or MEF cells, in the presence of BIO and DAPT, or without BIO and DAPT but with FGFs, in media with 10% KSR at a glucose concentration of 2000 mg/mL.
256 ng/mL of FGF2 (human bFGF) (Peprotech); and
50 ng/mL of FGF4 (Peprotech), FGF5 (Sigma), FGF7 (R&D Systems), FGF8 (Cosmo Bio), FGF9 (Peprotech), FGF10 (R&D Systems) and FGF18 (Sigma), respectively.
RNA was extracted from the ES cells using TRI Reagent (Sigma) or RNeasy micro-kit (Qiagen), and then, was treated with DNase (Sigma). Three micrograms of RNA were reverse-transcribed using a MMLV reverse transcriptase (Toyobo) and oligo dT primers (Toyobo). The PCR conditions for each cycle include initial denaturation at 96° C. for one minute, and the second and subsequent cycles of denaturation at 96° C. for 30 seconds, annealing at 60° C. for 2 seconds and extension at 72° C. for 20 seconds, and the final cycle of extension at 72° C. for 7 minutes. RT-PCR products were separated by 5% non-denaturing polyacrylamide gel electrophoresis, stained with SYBR Green I (Molecular Probes), and visualized using Gel Logic 200 Imaging System (Kodak).

Assay [4] deals with khES-3 (human ES cell line). Kind of assay: Intestinal differentiation of human ES cells on M15 cells. It counts as cell-based. Set-up: dose or concentration left out as unconfirmed. The conditions noted are these: activin for 10 days. An excerpt:
Human ES cells (KhES-3) (PMID: 16707099) was those provided by Dr. N. Nakatsuji and Dr. H. Suemori (Kyoto University, Kyoto, Japan), and were used in accordance with the hES cell guidelines of the Japanese government. The undifferentiated hES cells were maintained on a feeder layer of MEF in Knockout DMEM/F12 (Invitrogen) supplemented with 20% KSR, L-Gln, NEAA and β-ME under 3% CO2. To passage the hES cells, hES cell colonies were detached from the feeder layer by treating them with 0.25% trypsin and 0.1 mg/mL of collagenase IV in PBS containing 20% KSR and 1 mM of CaCl2 at 37° C. for 5 minutes, followed by adding a culture medium thereto and gently pipetting them several times to desegregate ES cell clumps into smaller pieces (5-20 cells).
For differentiation induction, the human ES cells were pre-treated with Y27632 (Wako) for 24 hours, and then, they were plated at 50,000 cells per well in 24-well plates that had been pre-coated with M15 cells. The ES cells were dissociated with 0.25% trypsin-EDTA (Invitrogen), and cultured in Y27632 containing an ES maintenance medium for one day. One day after plating, the cells were washed by PBS, and the medium was changed to a differentiation medium. […]

On to “FGF2: basic fibroblast growth factor, FGF2 (human bFGF) (Peprotech)”, for which the “proportion of Cdx2-positive cells” value in the assay on human ES cells [1] (9th day of cultivation, 250 ng/mL of FGF2 besides BIO (5 μM) and DAPT (10 μM)) was “decreased”; with human ES cells [2], “decreased”. Besides, the “proportion of Cdx2 positive cells” value in the assay with human ES cells [1] (20th day of cultivation, 0, 50 and 250 ng/mL of FGF2 besides BIO (5 μM) and DAPT (10 μM)) is reported as “decreased depending on the concentration of FGF2”. Moreover, the Cdx2-positive cells with mouse ES cells (10th day of cultivation) is on record as 40%; in the assay with mouse ES cells (15th day of cultivation), “about 60%”. Moreover, in the assay on mouse ES cells (10th day of cultivation, FGF2 50 ng/mL or SAG 300 nM added besides BIO and DAPT), the “number of Cdx2-positive cells versus control (only BIO and DAPT)” value is “significant increase”. Further, the “efficiency of differentiation versus control (only BIO and DAPT)” value with mouse ES cells (15th day of cultivation, FGF2 added besides BIO and DAPT) is “more efficiently differentiate”. The “induction of Cdx2-expressing intestinal cells” value in assay [3] (FGFs added from Day 4 of the differentiation, on MEF cells, immunohistochemistry on day 12) is recorded as “induced Cdx2-expressing intestinal cells”. Also, the “molecular markers for enterocytes (Ifabp, Isx), goblet cells (Tff3), Paneth cells (Lyz1) and enteroendocrine cells (Sct, Syp, Sst, Gast)” value in assay [3] (RT-PCR, day 15, BIO and DAPT, or FGF2 (256 ng/mL) only without BIO and DAPT) is “induced at much lower levels; also recorded: small in extent”.

B1: activin: recombinant human activin-A (R&D Systems) (protein, UniProt P08476 311-426, looked up)
Inhibin beta A chain: GLECDGKVNICCKKQFFVSFKDIGWNDWIIAPSGYHANYCEGECPSHIAGTSGSSLSFHSTVINHYRMRGHSPFANLKSCCVPTKLRPMSMLYYDDGQNIIKKDIQNMIVEECGCS
modifications: Inhibin beta A chain
On to B1, for which the “differentiation of khES-3 into definitive endoderm” value in assay [4] is “differentiated into definitive endoderm”.
